Among the data in patent US20230295149A1, “MONOBACTAM COMPOUNDS, THEIR PREPARATION AND USE AS ANTIBACTERIAL AGENTS” (NINGXIA ACADEMY OF AGRICULTURE AND FORESTRY SCIENCES, priority 2020, published 2023) are MIC values, retold here.

Assay in all cases: MIC determination, broth microdilution
What all share (format): cell-based
In general terms: Broth dilution looks for growth in wells or tubes with falling amounts of substance.

One test has as its system A. baumannii 19606. The conditions noted are these: Acinetobacter baumannii, 37° C., 18-24 hours, read-out: Strain8 MIC. How it is done: (§1) Compounds of this invention were tested for antimicrobial activity by determining minimum inhibitory concentrations (MICs, in μg/mL) using the broth microdilution method according to the guidelines of the Clinical Laboratories and Standards Institute (“Methods for Dilution Antimicrobial Susceptibility Tests for Bacteria that Grow Aerobically”, Approved standard, 7th ed., Clinical and Laboratory Standards Institute (CLSI) Document M7-A8, Wayne, Pa., USA, 2009.). Test compounds were dissolved in DMSO. The compounds were then diluted in microbial growth medium (Mueller Hinton Broth II, cation adjusted) resulting in a final concentration range of 0.063-64 μg/mL in serial two-fold dilution. In all cases the final DMSO concentration was less than 0.5%. Bacteria were added to 96-well microtitre plates containing the two-fold dilutions of the compounds; the final cell density was approximately 5×10^5 colony forming units/mL (CFU/mL). Plates were incubated at 37° C. for 18-24 hours and read visually. The MIC, i.e. the lowest concentration of the test compound that inhibited visible growth of the bacteria, was recorded. The same assay conditions were used when the compounds of this invention were tested in combination with—lactamase inhibitors. While the compounds of this invention were serially diluted as described above, a constant concentration of the inhibitor of 4 mg/L was used. Bacterial strains that were used to evaluate the antimicrobial activity using the MIC determination included but were not limited to E. coli clinical isolate, E. coli 8739, K. pneumoniae clinical isolate, K. pneumoniae 700603, E. cloacae clinical isolate, E. cloacae 700323, A. baumannii clinical isolate, A. baumannii 19606, P. aeruginosa clinical isolate, P. aeruginosa 9027.

The test system of test [1] is A. baumannii clinical isolate. The conditions noted are these: Acinetobacter baumannii, 37° C., 18-24 hours, read-out: Strain 7 MIC. Here is the method:
as §1

Another test deals with E. cloacae 700323. The conditions noted are these: Enterobacter cloacae, 37° C., 18-24 hours, read-out: Strain 6 MIC. Here is the method: as §1
Test [2] deals with E. cloacae clinical isolate. The conditions noted are these: Enterobacter cloacae, 37° C., 18-24 hours, read-out: Strain5 MIC. Here is the method: as §1
Another test relates to E. coli 8739. The conditions noted are these: Escherichia coli, 37° C., 18-24 hours, read-out: Strain 2 MIC. How it is done: as §1
Another test relates to E. coli clinical isolate. To be noted: Escherichia coli, 37° C., 18-24 hours, read-out: Strain 1 MIC. How it is done:
as §1

For the next test, the system named is K. pneumoniae 700603. The conditions noted are these: Klebsiella pneumoniae, 37° C., 18-24 hours, read-out: Strain 4 MIC. Here is the method:
as §1

The subject of test [3] is K. pneumoniae clinical isolate. To be noted: Klebsiella pneumoniae, 37° C., 18-24 hours, read-out: Strain 3 MIC. Here is the method: as §1
The next test concerns P. aeruginosa 9027. To be noted: Pseudomonas aeruginosa, 37° C., 18-24 hours, read-out: Strain 10 MIC. How it is done:
as §1

Test [4] deals with P. aeruginosa clinical isolate. To be noted: Pseudomonas aeruginosa, 37° C., 18-24 hours, read-out: Strain 9 MIC. How it is done:
as §1

Broadly, the MIC is the lowest concentration found to suppress growth. Take `C[C@H]1[C@H](NC(=O)/C(=N\O[C@@H](COc2ccc(C(=N)N[C@H]3CCCNC3)cc2)C(=O)O)c2nc(N)sc2Cl)C(=O)N1S(=O)(=O)O` [Example 9, (S)-2-((((Z)-1-(2-Amino-5-chlorothiazol-4-yl)-2-(((2S,3S)-2-methyl-4-oxo-1-sulfoazetidin-3-yl)amino)-2-oxoethylidene)amino)oxy)-3-(4-(N—((S)-piperidin-3-yl)carbamimidoyl)phenoxy)propanoic acid]: the MIC in the test on A. baumannii 19606 stood at 16 µg/mL; in test [1], 32 µg/mL; with E. cloacae 700323, 32 µg/mL; in test [2], 64 µg/mL; in the test on E. coli 8739 it was 0.5 µg/mL; in the test with E. coli clinical isolate it was 1 µg/mL. Moreover, the MIC with K. pneumoniae 700603 turned out to be 64 µg/mL; in test [3], 32 µg/mL; in the test with P. aeruginosa 9027 it was 1 µg/mL; in test [4], 16 µg/mL.

On to `CC1(C)[C@H](NC(=O)/C(=N\O[C@@H](COc2ccc(C(=N)N[C@@H]3CCNC3)cc2)C(=O)O)c2nc(N)sc2Cl)C(=O)N1OS(=O)(=O)O` [Example 10, (S)-2-((((Z)-1-(2-Amino-5-chlorothiazol-4-yl)-2-(((S)-2,2-dimethyl-4-oxo-1-(sulfooxy)azetidin-3-yl)amino)-2-oxoethylidene)amino)oxy)-3-(4-(N—((R)-pyrrolidin-3-yl)carbamimidoyl)phenoxy)propanoic acid], for which the MIC with A. baumannii 19606 was found to be 8 µg/mL; in test [1], 8 µg/mL; with E. cloacae 700323, 4 µg/mL; in [2], 2 µg/mL; with E. coli 8739, 0.25 µg/mL; in the test with E. coli clinical isolate, 1 µg/mL. In addition, the MIC was 1 µg/mL in the test on K. pneumoniae 700603, 1 µg/mL in [3], 2 µg/mL in the test on P. aeruginosa 9027 and 2 µg/mL in test [4].

Consider `CC1(C)[C@H](NC(=O)/C(=N\O[C@@H](COc2ccc(C(=N)N[C@H]3CCCNC3)cc2)C(=O)O)c2nc(N)sc2Cl)C(=O)N1OS(=O)(=O)O` [Example 11, (S)-2-((((Z)-1-(2-Amino-5-chlorothiazol-4-yl)-2-(((S)-2,2-dimethyl-4-oxo-1-(sulfooxy)azetidin-3-yl)amino)-2-oxoethylidene)amino)oxy)-3-(4-(N—((S)-piperidin-3-yl)carbamimidoyl)phenoxy)propanoic acid], for which the MIC in the test on A. baumannii 19606 was found to be 32 µg/mL; in test [1], 16 µg/mL; with E. cloacae 700323 it was 64 µg/mL; in test [2] it was 32 µg/mL; in the test with E. coli 8739, 0.5 µg/mL; in the test on E. coli clinical isolate it was 0.5 µg/mL. The MIC with K. pneumoniae 700603 stood at 64 µg/mL; in [3], 32 µg/mL; in the test with P. aeruginosa 9027, 2 µg/mL; in test [4], 4 µg/mL.

Regarding `CC1(C)[C@H](NC(=O)/C(=N\O[C@@H](COc2ccc(C(=N)N[C@@H]3CCNC3)cc2)C(=O)O)c2nsc(N)n2)C(=O)N1OS(=O)(=O)O` [Example 12, (S)-2-((((Z)-1-(5-Amino-1,2,4-thiadiazol-3-yl)-2-(((S)-2,2-dimethyl-4-oxo-1-(sulfooxy)azetidin-3-yl)amino)-2-oxoethylidene)amino)oxy)-3-(4-(N—((R)-pyrrolidin-3-yl)carbamimidoyl)phenoxy)propanoic acid], the MIC in the test with A. baumannii 19606 came to 8 µg/mL; in [1], 16 µg/mL; in the test on E. cloacae 700323 it was 8 µg/mL; in test [2], 8 µg/mL; with E. coli 8739, 1 µg/mL; in the test with E. coli clinical isolate it was 8 µg/mL. Further, the MIC is 8 µg/mL in the test on K. pneumoniae 700603, 4 µg/mL in [3], 2 µg/mL in the test on P. aeruginosa 9027 and 2 µg/mL in test [4].
